In patent US9175003B2, “Substituted azoanthracene derivatives and intermediates for preparation thereof” (TransTech Pharma, LLC, priority 2009, dated 2015):
pEC50: −log10 of the molar value.

target: human GLP-1 receptor (Homo sapiens (Human), UniProt P43220); settings: read-out: Mean EC50; cAMP, HTRF detection, 30 min at 37° C., HEK-293 cells expressing cloned human GLP-1 receptor
Sequence (P43220 24-463): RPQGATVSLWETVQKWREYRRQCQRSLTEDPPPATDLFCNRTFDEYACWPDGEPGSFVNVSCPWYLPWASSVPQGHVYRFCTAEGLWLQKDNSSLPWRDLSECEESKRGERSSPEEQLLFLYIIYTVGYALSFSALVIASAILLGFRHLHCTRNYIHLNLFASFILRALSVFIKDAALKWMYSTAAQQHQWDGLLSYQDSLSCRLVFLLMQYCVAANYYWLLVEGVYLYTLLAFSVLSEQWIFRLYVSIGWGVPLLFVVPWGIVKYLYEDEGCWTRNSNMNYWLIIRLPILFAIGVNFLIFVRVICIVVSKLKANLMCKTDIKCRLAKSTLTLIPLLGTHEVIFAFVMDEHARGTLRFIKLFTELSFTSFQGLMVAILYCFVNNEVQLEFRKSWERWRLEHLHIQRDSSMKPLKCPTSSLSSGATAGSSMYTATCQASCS

| SMILES | pEC50 |
| --- | --- |
| Cc1nccc(-c2ccc(C[C@H](NC(=O)[C@@H]3Cc4cc5c(cc4CN3C(=O)N[C@H](C)c3ccccc3)O[C@@H](c3ccc(OCCc4ccc(Cl)cc4)cc3)CO5)C(=O)O)cc2)c1C [Example 388, (S)-2-{[(3S,8S)-3-{4-[2-(4-Chloro-phenyl)-ethoxy]-phenyl}-7-((R)-1-phenyl-ethylcarbamoyl)-2,3,6,7,8,9-hexahydro-[1,4]dioxino[2,3-g]isoquinoline-8-carbonyl]-amino}-3-[4-(2,3-dimethyl-pyridin-4-yl)-phenyl]-propionic acid] | 6.75 |
| Cc1nc(C(=O)N2Cc3cc4c(cc3C[C@H]2C(=O)N[C@@H](Cc2ccc(-c3ccnc(C)c3C)cc2)C(=O)O)OC[C@H](c2ccc(O[C@H]3CC[C@H](C)CC3)cc2)O4)c(C)o1 [Example 382, (S)-2-({(3S,8S)-7-(2,5-Dimethyl-oxazole-4-carbonyl)-3-[4-(trans-4-methyl-cyclohexyloxy)-phenyl]-2,3,6,7,8,9-hexahydro-[1,4]dioxino[2,3-g]isoquinoline-8-carbonyl}-amino)-3-[4-(2,3-dimethyl-pyridin-4-yl)-phenyl]-propionic acid] | 6.97 |
| Cc1nc(N)sc1S(=O)(=O)N1Cc2cc3c(cc2C[C@H]1C(=O)N[C@@H](Cc1ccc(-c2ccc(C#N)cc2)cc1)C(=O)O)OC[C@@H](c1ccc(OCc2ccc(Cl)c(Cl)c2)cc1)O3 [Example 60, (S)-2-({(3R,8S)-7-(2-Amino-4-methyl-thiazole-5-sulfonyl)-3-[4-(3,4-dichloro-benzyloxy)-phenyl]-2,3,6,7,8,9-hexahydro-[1,4]dioxino[2,3-g]isoquinoline-8-carbonyl}-amino)-3-(4′-cyano-biphenyl-4-yl)-propionic acid] | 6.96 |
| Cc1nccc(-c2ccc(C[C@H](NC(=O)[C@@H]3Cc4cc5c(cc4CN3C(=O)Cc3ccccc3)O[C@@H](c3ccc(OCc4ccc(Cl)c(Cl)c4)cc3)CO5)C(=O)O)cc2)c1C [Example 155, (S)-2-({(3S,8S)-3-[4-(3,4-Dichloro-benzyloxy)-phenyl]-7-phenylacetyl-2,3,6,7,8,9-hexahydro-[1,4]dioxino[2,3-g]isoquinoline-8-carbonyl}-amino)-3-[4-(2,3-dimethyl-pyridin-4-yl)-phenyl]-propionic acid] | 6.28 |
| Cc1cc(C(=O)N2Cc3cc4c(cc3C[C@H]2C(=O)N[C@@H](Cc2ccc(-c3ccnc(C)c3C)cc2)C(=O)O)OC[C@H](c2ccc(OCc3ccc(Cl)c(Cl)c3)cc2)O4)no1 [Example 271, (S)-2-{[(3S,8S)-3-[4-(3,4-Dichloro-benzyloxy)-phenyl]-7-(5-methyl-isoxazole-3-carbonyl)-2,3,6,7,8,9-hexahydro-[1,4]dioxino[2,3-g]isoquinoline-8-carbonyl]-amino}-3-[4-(2,3-dimethyl-pyridin-4-yl)-phenyl]-propionic acid] | 6.99 |
| COCCNc1nc(C)c(S(=O)(=O)N2Cc3cc4c(cc3C[C@H]2C(=O)N[C@@H](Cc2ccc(-c3ccc(C#N)cc3)cc2)C(=O)O)OC[C@H](c2ccc(OCc3ccc(Cl)c(Cl)c3)cc2)O4)s1 [Example 92, (S)-3-(4′-Cyano-biphenyl-4-yl)-2-({(3S,8S)-3-[4-(3,4-dichloro-benzyloxy)-phenyl]-7-[2-(2-methoxy-ethylamino)-4-methyl-thiazole-5-sulfonyl]-2,3,6,7,8,9-hexahydro-[1,4]dioxino[2,3-g]isoquinoline-8-carbonyl}-amino)-propionic acid] | 6.81 |
| CC[C@@H](c1ccccc1)N1Cc2cc3c(cc2C[C@H]1C(=O)N[C@@H](Cc1ccc(-c2ccnc(N)c2)cc1)C(=O)O)OC[C@H](c1ccc(OCc2ccc(Cl)c(Cl)c2)cc1)O3 [Example 208, (S)-3-[4-(2-Amino-pyridin-4-yl)-phenyl]-2-{[(3S,8S)-3-[4-(3,4-dichloro-benzyloxy)-phenyl]-7-((S)-1-phenyl-propyl)-2,3,6,7,8,9-hexahydro-[1,4]dioxino[2,3-g]isoquinoline-8-carbonyl]-amino}-propionic acid] | 7.14 |
| CC[C@@H](c1ccccc1)N1Cc2cc3c(cc2C[C@H]1C(=O)N[C@@H](Cc1ccc(-c2ccnc(C)c2C)cc1)C(=O)O)OC[C@H](c1ccc(OCc2ccccc2)cc1)O3 [Example 149, (S)-2-{[(3S,8S)-3-(4-Benzyloxy-phenyl)-7-((S)-1-phenyl-propyl)-2,3,6,7,8,9-hexahydro-[1,4]dioxino[2,3-g]isoquinoline-8-carbonyl]-amino}-3-[4-(2,3-dimethyl-pyridin-4-yl)-phenyl]-propionic acid] | 7.59 |

Further molecules by rising pEC50, results first:

| pEC50 | SMILES |
| --- | --- |
| 6.32 | Cc1nc(NC(=O)[C@@H]2CCCN2)sc1S(=O)(=O)N1Cc2cc3c(cc2C[C@H]1C(=O)N[C@@H](Cc1ccc(-c2ccc(C#N)cc2)cc1)C(=O)O)OCC(c1ccc(OCc2ccc(Cl)c(Cl)c2)cc1)O3 (some centres unmarked) [Example 71] |
| 6.60 | Cc1nccc(-c2ccc(C[C@H](NC(=O)[C@@H]3Cc4cc5c(cc4CN3C(=O)Nc3ccccn3)O[C@@H](c3ccc(OCc4ccc(Cl)c(Cl)c4)cc3)CO5)C(=O)O)cc2)c1C [Example 258, (S)-2-{[(3S,8S)-3-[4-(3,4-dichloro-benzyloxy)-phenyl]-7-(pyridin-2-ylcarbamoyl)-2,3,6,7,8,9-hexahydro-[1,4]dioxino[2,3-g]isoquinoline-8-carbonyl]-amino}-3-[4-(2,3-dimethyl-pyridin-4-yl)-phenyl]-propionic acid] |
| 7.10 | Cc1nccc(-c2ccc(C[C@H](NC(=O)[C@@H]3Cc4cc5c(cc4CN3C(=O)C(C)(C)C)O[C@@H](c3ccc(OCc4ccc(Cl)c(Cl)c4)cc3)CO5)C(=O)O)cc2)c1C [Example 152, (S)-2-{[(3S,8S)-3-[4-(3,4-Dichloro-benzyloxy)-phenyl]-7-(2,2-dimethyl-propionyl)-2,3,6,7,8,9-hexahydro-[1,4]dioxino[2,3-g]isoquinoline-8-carbonyl]-amino}-3-[4-(2,3-dimethyl-pyridin-4-yl)-phenyl]-propionic acid] |
| 7.30 | COCCNc1ccc(S(=O)(=O)N2Cc3cc4c(cc3C[C@H]2C(=O)N[C@@H](Cc2ccc(-c3ccc(C#N)cc3)cc2)C(=O)O)OCC(c2ccc(OCc3ccc(Cl)c(Cl)c3)cc2)O4)c(C)n1 (stereo in doubt) [Example 136, (S)-3-(4′-Cyano-biphenyl-4-yl)-2-({(S)-3-[4-(3,4-dichloro-benzyloxy)-phenyl]-7-[6-(2-methoxy-ethylamino)-2-methyl-pyridine-3-sulfonyl]-2,3,6,7,8,9-hexahydro-[1,4]dioxino[2,3-g]isoquinoline-8-carbonyl}-amino)-propionic acid] |
| 7.59 | Cc1nc(C(=O)N2Cc3cc4c(cc3C[C@H]2C(=O)N[C@@H](Cc2ccc(-c3ccnc(C)c3C)cc2)C(=O)O)OC[C@H](c2ccc(OCc3cc(Cl)cc(Cl)c3)cc2)O4)c(C)o1 [Example 384, (S)-2-{[(3S,8S)-3-[4-(3,5-Dichloro-benzyloxy)-phenyl]-7-(2,5-dimethyl-oxazole-4-carbonyl)-2,3,6,7,8,9-hexahydro-[1,4]dioxino[2,3-g]isoquinoline-8-carbonyl]-amino}-3-[4-(2,3-dimethyl-pyridin-4-yl)-phenyl]-propionic acid] |
| 7.66 | Cc1nccc(-c2ccc(C[C@H](NC(=O)[C@@H]3Cc4cc5c(cc4CN3Cc3ncccc3F)O[C@@H](c3ccc(OCc4ccc(Cl)c(Cl)c4)cc3)CO5)C(=O)O)cc2)c1C [Example 228, (S)-2-{[(3S,8S)-3-[4-(3,4-Dichloro-benzyloxy)-phenyl]-7-(3-fluoro-pyridin-2-ylmethyl)-2,3,6,7,8,9-hexahydro-[1,4]dioxino[2,3-g]isoquinoline-8-carbonyl]-amino}-3-[4-(2,3-dimethyl-pyridin-4-yl)-phenyl]-propionic acid] |
